From US9815819B2, “Complement pathway modulators and uses thereof” (priority 2012, dated 2017) come the findings set out here.

One may read the pIC50 as the IC50 on a negative log10 scale, so that one unit is a factor of ten. Usually IC50 stands for the midpoint of a concentration-inhibition curve.

Structures are written as SMILES. pIC50: −log10 of the molar value.

Recombinant human factor D, sequence (P00746 26-253): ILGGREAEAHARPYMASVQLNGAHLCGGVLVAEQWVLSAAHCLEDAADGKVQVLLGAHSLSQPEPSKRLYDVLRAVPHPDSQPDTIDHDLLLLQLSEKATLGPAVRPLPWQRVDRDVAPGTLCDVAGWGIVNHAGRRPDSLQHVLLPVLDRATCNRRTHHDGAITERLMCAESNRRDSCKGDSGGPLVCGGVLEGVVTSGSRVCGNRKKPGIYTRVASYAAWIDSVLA

One test has as its target Recombinant human factor D (Homo sapiens (Human), UniProt P00746). The experiment in a line: Human Complement Factor D Assay: Method 1. Format: biochemical. To be noted: Factor D inhibition, Method 1: 10 nM factor D, 1 hour incubation with compound at room temperature, substrate Z-Lys-thiobenzyl, fluorescence readout; read-out: IC50.
Experimental: Recombinant human factor D (expressed in E. coli and purified using standard methods) at 10 nM concentration is incubated with test compound at various concentrations for 1 hour at room temperature in 0.1 M Hepes buffer, pH 7.5, containing 1 mM MgCl2, 1 M NaCl and 0.05% CHAPS. […] IC50 values are calculated from percentage of inhibition of complement factor D-activity as a function of test compound concentration.
For the compound `CC(=O)c1nn(CC(=O)N2[C@@H]3C[C@@H]3C[C@H]2C(=O)NC2CC2c2cccc(C(F)(F)F)c2)c2cnccc12` (stereo partly drawn) [Example 33, (1R,3S,5R)-2-[2-(3-Acetyl-pyrazolo[3,4-c]pyridin-1-yl)-acetyl]-2-aza-bicyclo[3.1.0] hexane-3-carboxylic acid [2-(3-trifluoromethyl-phenyl)-cyclopropyl]-amide], the pIC50 was 6.26.
Same read-out and setting: the result for `CC(=O)c1nn(CC(=O)N2[C@@H]3C[C@@H]3C[C@H]2C(=O)N[C@@H]2C[C@@]2(F)c2ccccc2)c2ncccc12` [Example 44, (1R,3S,5R)-2-[2-(3-Acetyl-pyrazolo[3,4-b]pyridin-1-yl)-acetyl]-2-aza-bicyclo[3.1.0] hexane-3-carboxylic acid ((1R,2R)-2-fluoro-2-phenyl-cyclopropyl)-amide] reads 7.18; that for `NC(=O)c1nn(CC(=O)N2C[C@H](F)C[C@H]2C(=O)N[C@@H]2C[C@H]2c2ccc(Cl)cc2)c2cnccc12` [Example 72, 1-(2-{(2S,4R)-2-[(1R,2S)-2-(4-Chloro-phenyl)-cyclopropylcarbamoyl]-4-fluoro-pyrrolidin-1-yl}-2-oxo-ethyl)-1H-pyrazolo[3,4-c]pyridine-3-carboxylic acid amide], 6.51.
With `NC(=O)c1nn(CC(=O)N2[C@@H]3C[C@@H]3C[C@H]2C(=O)NC2CC2c2ccc(F)cc2F)c2ccccc12` (single isomer, unassigned) [Example 74], the negative-log IC50 (pIC50) is 5.42.
With `Cc1cc2c(C(N)=O)nn(CC(=O)N3[C@@H]4C[C@@H]4C[C@H]3C(=O)N[C@@H]3C[C@H]3c3ccccc3)c2cn1` [Example 15, 5-Methyl-1-{2-oxo-2-[(1R,3S,5R)-3-((1R,2S)-2-phenyl-cyclopropylcarbamoyl)-2-aza-bicyclo[3.1.0]hex-2-yl]-ethyl}-1H-pyrazolo[3,4-]pyridine-3-carboxylic acid amide], the pIC50 was 6.94.
The same measure, in the same setting: the result for `NC(=O)c1nn(CC(=O)N2[C@@H]3C[C@@H]3C[C@H]2C(=O)NC2CC2c2ccc(F)cc2F)c2ccccc12` (single isomer, unassigned) [Example 75] reads 5.11; that for `Cc1cc2c(C(N)=O)nn(CC(=O)N3[C@@H]4C[C@@H]4C[C@H]3C(=O)N[C@H]3C[C@]3(F)c3ccccc3)c2cn1` [Example 49, 1-{2-[(1R,3S,5R)-3-((1S,2S)-2-Fluoro-2-phenyl-cyclopropylcarbamoyl)-2-aza-bicyclo[3.1.0]hex-2-yl]-2-oxo-ethyl}-5-methyl-1H-pyrazolo[3,4-c]pyridine-3-carboxylic acid amide], 5.93; that for `NC(=O)c1nn(CC(=O)N2[C@@H]3C[C@@H]3C[C@H]2C(=O)N[C@@H]2C[C@H]2c2ccccc2)c2ncccc12` [Example 13, 1-{2-Oxo-2-[(1R,3S,5R)-3-((1R,2S)-2-phenyl-cyclopropylcarbamoyl)-2-aza-bicyclo[3.1.0]hex-2-yl]-ethyl}-1H-pyrazolo[3,4-b]pyridine-3-carboxylic acid amide], 6.76.
Same read-out and setting: the result for `CC(=O)c1nn(CC(=O)N2[C@@H]3C[C@@H]3C[C@H]2C(=O)N[C@]2(C)C[C@H]2c2ccccc2)c2cnccc12` [Example 22, (1R,3S,5R)-2-[2-(3-Acetyl-pyrazolo[3,4-c]pyridin-1-yl)-acetyl]-2-aza-bicyclo[3.1.0] hexane-3-carboxylic acid ((1R,2S)-1-methyl-2-phenyl-cyclopropyl)-amide] reads 6.06; that for `NC(=O)c1nn(CC(=O)N2C[C@H](F)C[C@H]2C(=O)N[C@@H]2C[C@H]2c2ccccc2F)c2cnccc12` [Example 40, 1-(2-{(2S,4R)-4-Fluoro-2-[(1R,2S)-2-(2-fluoro-phenyl)-cyclopropylcarbamoyl]-pyrrolidin-1-yl}-2-oxo-ethyl)-1H-pyrazolo[3,4-c]pyridine-3-carboxylic acid amide], 6.85; that for `CC(=O)c1nn(CC(=O)N2[C@@H]3C[C@@H]3C[C@H]2C(=O)NC2CC2c2ccc(OC(F)F)cc2)c2cnccc12` (stereo partly drawn) [Example 32, (1R,3S,5R)-2-[2-(3-Acetyl-pyrazolo[3,4-c]pyridin-1-yl)-acetyl]-2-aza-bicyclo[3.1.0]hexane-3-carboxylic acid[2-(4-difluoromethoxy-phenyl)-cyclopropyl]-amide], 6.49.
Take `NC(=O)c1nn(CC(=O)N2[C@@H]3C[C@@H]3C[C@H]2C(=O)NC2CC2(F)c2ccccc2F)c2ccccc12` (single isomer, unassigned) [Example 51]: the pIC50 is 6.00.
For `CC(=O)c1nn(CC(=O)N2[C@@H]3C[C@@H]3C[C@H]2C(=O)N[C@H]2C[C@]2(F)c2ccccc2)c2ncccc12` [Example 45, (1R,3S,5R)-2-[2-(3-Acetyl-pyrazolo[3,4-b]pyridin-1-yl)-acetyl]-2-aza-bicyclo[3.1.0] hexane-3-carboxylic acid ((1S,2S)-2-fluoro-2-phenyl-cyclopropyl)-amide], the pIC50 was 4.98.
`CC(=O)c1nn(CC(=O)N2[C@@H]3C[C@@H]3C[C@H]2C(=O)NC2CC(c3ccccc3)C2)c2ncccc12` (stereo partly drawn) [Example 35, (1R,3S,5R)-2-[2-(3-Acetyl-pyrazolo[3,4-b]pyridin-1-yl)-acetyl]-2-aza-bicyclo[3.1.0] hexane-3-carboxylic acid (3-phenyl-cyclobutyl)-amide]: the pIC50 is 6.04.
Same read-out and setting: to `CC(=O)c1nn(CC(=O)N2[C@@H]3C[C@@H]3C[C@H]2C(=O)N[C@@H]2C[C@H]2c2ccccc2F)c2ncccc12` [Example 63, (1R,3S,5R)-2-[2-(3-Acetyl-pyrazolo[3,4-b]pyridin-1-yl)-acetyl]-2-aza-bicyclo[3.1.0] hexane-3-carboxylic acid [(1R,2S)-2-(2-fluoro-phenyl)-cyclopropyl]-amide] belongs 7.19; to `CC(=O)c1nn(CC(=O)N2[C@@H]3C[C@@H]3C[C@H]2C(=O)N[C@H]2C[C@@H]2c2cccc(Cl)c2F)c2ncccc12` [Example 57, (1R,3S,5R)-2-[2-(3-Acetyl-pyrazolo[3,4-b]pyridin-1-yl)-acetyl]-2-aza-bicyclo[3.1.0]hexane-3-carboxylic acid [(1S,2R)-2-(3-chloro-2-fluoro-phenyl)-cyclopropyl]-amide], 5.79.
Still for that read-out and setting: to `CC(=O)c1nn(CC(=O)N2[C@@H]3C[C@@H]3C[C@H]2C(=O)N[C@@]2(C)C[C@@H]2c2ccccc2)c2cnccc12` [Example 23, (1R,3S,5R)-2-[2-(3-Acetyl-pyrazolo[3,4-c]pyridin-1-yl)-acetyl]-2-aza-bicyclo[3.1.0] hexane-3-carboxylic acid ((1S,2R)-1-methyl-2-phenyl-cyclopropyl)-amide] belongs 4.88.
On the same count and under the same terms, to `NC(=O)c1nn(CC(=O)N2[C@@H]3C[C@@H]3C[C@H]2C(=O)N[C@@H]2C[C@@]2(F)c2ccccc2)c2cnccc12` [Example 43, 1-{2-[(1R,3S,5R)-3-((1R,2R)-2-Fluoro-2-phenyl-cyclopropylcarbamoyl)-2-aza-bicyclo[3.1.0]hex-2-yl]-2-oxo-ethyl}-1H-pyrazolo[3,4-c]pyridine-3-carboxylic acid amide] belongs 6.67.
`NC(=O)c1nn(CC(=O)N2C[C@H](F)C[C@H]2C(=O)N[C@@H]2C[C@H]2c2ccccc2)c2ccccc12` [Example 18, 1-{2-[(2S,4R)-4-Fluoro-2-((1R,2S)-2-phenyl-cyclopropylcarbamoyl)-pyrrolidin-1-yl]-2-oxo-ethyl}-1H-indazole-3-carboxylic acid amide]: the pIC50 was 7.36.
Same read-out and setting: the result for `CC(=O)c1nn(CC(=O)N2[C@@H]3C[C@@H]3C[C@H]2C(=O)N[C@H]2C[C@]2(F)c2ccccc2)c2cnccc12` [Example 47, (1R,3S,5R)-2-[2-(3-Acetyl-pyrazolo[3,4-c]pyridin-1-yl)-acetyl]-2-aza-bicyclo[3.1.0] hexane-3-carboxylic acid ((1S,2S)-2-fluoro-2-phenyl-cyclopropyl)-amide] reads 6.00; that for `CO[C@H]1[C@@H](C(=O)N[C@@H]2C[C@H]2c2ccccc2)N(C(=O)Cn2nc(C(C)=O)c3ccccc32)C[C@@H]1F` [Example 10, (2S,3S,4S)-1-[2-(3-Acetyl-indazol-1-yl)-acetyl]-4-fluoro-3-methoxy-pyrrolidine-2-carboxylic acid ((1R,2S)-2-phenyl-cyclopropyl)-amide], 7.40; that for `CC(=O)c1nn(CC(=O)N2[C@H](C(=O)N[C@@H]3C[C@H]3c3ccccc3Cl)C[C@@]3(CO)C[C@@H]23)c2cnccc12` [Example 31, (1R,3S,5S)-2-[2-(3-Acetyl-pyrazolo[3,4-c]pyridin-1-yl)-acetyl]-5-hydroxymethyl-2-aza-bicyclo[3.1.0]hexane-3-carboxylic acid[(1R,2S)-2-(2-chloro-phenyl)-cyclopropyl]-amide], 7.43.
Consider `CC(=O)c1nn(CC(=O)N2[C@@H]3C[C@@H]3C[C@H]2C(=O)N[C@@H]2C[C@H]2c2ccccc2)c2ncccc12` [Example 8, (1R,3S,5R)-2-[2-(3-Acetyl-pyrazolo[3,4-b]pyridin-1-yl)-acetyl]-2-aza-bicyclo[3.1.0]hexane-3-carboxylic acid ((1R,2S)-2-phenyl-yclopropyl)-amide], for which the pIC50 is 6.91.
On the same count and under the same terms, the result for `CC(=O)c1nn(CC(=O)N2[C@@H]3C[C@@H]3C[C@H]2C(=O)N[C@@H]2C[C@H]2c2ccccc2Cl)c2ncccc12` [Example 66, (1R,3S,5R)-2-[2-(3-Acetyl-pyrazolo[3,4-b]pyridin-1-yl)-acetyl]-2-aza-bicyclo[3.1.0] hexane-3-carboxylic acid [(1R,2S)-2-(2-chloro-phenyl)-cyclopropyl]-amide] reads 7.36.
Same read-out and setting: the result for `CC(=O)c1nn(CC(=O)N2[C@@H]3C[C@@H]3C[C@H]2C(=O)N[C@@H]2C[C@H]2c2ccccc2F)c2cc(C(=O)O)ccc12` [Example 87, 3-Acetyl-1-(2-{(1R,3S,5R)-3-[(1R,2S)-2-(2-fluoro-phenyl)-cyclopropylcarbamoyl]-2-aza-bicyclo[3.1.0]hex-2-yl}-2-oxo-ethyl)-1H-indazole-6-carboxylic acid] reads 7.34.

The test is the same for the next values; noted with them: IC50 (μM), Factor D inhibition, Method 1: 10 nM factor D, 1 hour incubation with compound at room temperature, substrate Z-Lys-thiobenzyl, fluorescence readout.
As for `NC(=O)c1nn(CC(=O)N2[C@@H]3C[C@@H]3C[C@H]2C(=O)NC2CCCC(c3ccccc3)C2)c2ccccc12` (single isomer, unassigned) [Example 80], the IC50 amounted to 0.475 µM.
